# Counter-ions that a name gives are not always drawn.
# Test: Comparative intrinsic dissolution study
# Format: physicochemical
# Conditions: for % Release of Doxazosin Mesylate: 50 mg pellet, 900 ml 0.01N HCl, 37±0.5° C., paddle 50 rpm
# Protocol: To measure the intrinsic dissolution of the doxazosin mesylate Form IV, Form M and Form D, samples were measured to compare the influence of the different parameter settings. At appropriate time intervals, an automated sample collector removes aliquots from dissolution medium for analysis. The time interval for sampling can vary, for example, from 2 to 30 minutes, depending on the properties of the drug and dissolution medium used. Suitable dissolution equipment for these operations include LAB INDIA DISSO 2000.
# A tableting mixture (50 mg) comprising solely doxazosin mesylate (i.e. with no excipients) was prepared and compressed to a pellet using a manual hand press operating at a compression pressure of 5 tones for 5 minutes.
# In-vitro dissolutions studies were performed on the 50 mg pellet in a LAB INDIA DISSO 2000.
# The pellet was fixed in a PFTE holder, such that only the pellet surface came into contact with the dissolution medium. The PFTE loaded holder was placed in the dissolution vessel containing 900 ml of 0.01N HCl at 37±0.5° C. Three pellets were measured for each run of the design of the experiments. Stirring was performed with a paddle rotating at 50 rpm. The dissolution was followed up to 1440 min and the concentration of active ingredient, doxazosin mesylate, dissolved in the test medium was determined by removing samples of 10 ml at the specified time.
# The concentration of doxazosin mesylate was quantified by HPLC UV method at a maximum wavelength of 245 nm under conditions as specified: • Mobile Phase: 450:450:100:: Buffer:MeOH:Acetonitrile • Buffer: 0.3% v/v Diethylamine. The pH adjusted to 2.5 with orthophosphoric acid • Column: Inersil ODS 15 cm • Flow: 1.0 ml/min
# The percentage of doxazosin mesylate released was plotted against time. The intrinsic dissolution rate was derived from the slope of this curve.
structure (smiles),measurement,setting,value
"COc1cc2nc(N3CCN(C(=O)C4COc5ccccc5O4)CC3)nc(N)c2cc1OC (stereo not drawn) [Form D, doxazosin mesylate]",% Release of Doxazosin Mesylate,"5 minutes, listed as Form -D",1.8%
same,% Release of Doxazosin Mesylate,"15 minutes, listed as Form -D",3.5%
same,% Release of Doxazosin Mesylate,"30 minutes, listed as Form -D",6.1%
same,% Release of Doxazosin Mesylate,"45 minutes, listed as Form -D",8.8%
same,% Release of Doxazosin Mesylate,"60 minutes, listed as Form -D",10.7%
same,% Release of Doxazosin Mesylate,"120 minutes, listed as Form -D",18.5%
same,% Release of Doxazosin Mesylate,"180 minutes, listed as Form -D",27.0%
same,% Release of Doxazosin Mesylate,"240 minutes, listed as Form -D",32.3%
same,% Release of Doxazosin Mesylate,"360 minutes, listed as Form -D",51.0%
same,% Release of Doxazosin Mesylate,"480 minutes, listed as Form -D",65.1%
same,% Release of Doxazosin Mesylate,"600 minutes, listed as Form -D",72.7%
same,% Release of Doxazosin Mesylate,720 minutes,74.5%
same,% Release of Doxazosin Mesylate,"720 minutes, listed as Form -D",74.5%
same,% Release of Doxazosin Mesylate,"900 minutes, listed as Form -D",76.0%
same,% Release of Doxazosin Mesylate,"1080 minutes, listed as Form -D",75.8%
same,% Release of Doxazosin Mesylate,"1260 minutes, listed as Form -D",75.6%
"COc1cc2nc(N3CCN(C(=O)C4COc5ccccc5O4)CC3)nc(N)c2cc1OC (stereo not drawn) [Form IV, 1-(4-amino-6,7-dimethoxy-2-quinazolinyl)-4-(2,3-dihydro-1,4-benzodioxin-2-yl)carbonyl piperazine monomethanesulfonate]",% Release of Doxazosin Mesylate,"5 minutes, monomethanesulfonate",1.6%
same,% Release of Doxazosin Mesylate,"15 minutes, monomethanesulfonate",3.6%
same,% Release of Doxazosin Mesylate,"30 minutes, monomethanesulfonate",6.6%
same,% Release of Doxazosin Mesylate,"45 minutes, monomethanesulfonate",9.5%
same,% Release of Doxazosin Mesylate,"60 minutes, monomethanesulfonate",12.0%
same,% Release of Doxazosin Mesylate,"120 minutes, monomethanesulfonate",21.8%
same,% Release of Doxazosin Mesylate,"180 minutes, monomethanesulfonate",34.5%
same,% Release of Doxazosin Mesylate,"240 minutes, monomethanesulfonate",45.7%
same,% Release of Doxazosin Mesylate,"360 minutes, monomethanesulfonate",66.2%
same,% Release of Doxazosin Mesylate,"480 minutes, monomethanesulfonate",77.4%
same,% Release of Doxazosin Mesylate,"600 minutes, monomethanesulfonate",80.0%
same,% Release of Doxazosin Mesylate,"720 minutes, listed as Form -IV, monomethanesulfonate",81.1%
same,% Release of Doxazosin Mesylate,"720 minutes, monomethanesulfonate",81.1%
same,% Release of Doxazosin Mesylate,"900 minutes, monomethanesulfonate",79.7%
same,% Release of Doxazosin Mesylate,"1080 minutes, monomethanesulfonate",79.2%
same,% Release of Doxazosin Mesylate,"1260 minutes, monomethanesulfonate",77.6%
same,higher dissolution rate compared with known Form D,at 30 minutes,8%
same,higher dissolution rate compared with known Form D,at 60 minutes,10.84%
same,higher dissolution rate compared with known Form D,at 120 minutes,15.14%
same,higher dissolution rate compared with known Form D,at 180 minutes,21.74%
same,higher dissolution rate compared with known Form D,at 240 minutes,29.33%
same,rate of dissolution,"compared with known forms, Form M and Form D",superior rate of dissolution
"COc1cc2nc(N3CCN(C(=O)C4COc5ccccc5O4)CC3)nc(N)c2cc1OC (stereo not drawn) [Form M, doxazosin mesylate]",% Release of Doxazosin Mesylate,"5 minutes, listed as Form -M",1.5%
same,% Release of Doxazosin Mesylate,"15 minutes, listed as Form -M",2.8%
same,% Release of Doxazosin Mesylate,"30 minutes, listed as Form -M",5.0%
same,% Release of Doxazosin Mesylate,"45 minutes, listed as Form -M",6.5%
same,% Release of Doxazosin Mesylate,"60 minutes, listed as Form -M",8.1%
same,% Release of Doxazosin Mesylate,"120 minutes, listed as Form -M",14.1%
same,% Release of Doxazosin Mesylate,"180 minutes, listed as Form -M",20.8%
same,% Release of Doxazosin Mesylate,"240 minutes, listed as Form -M",26.5%
same,% Release of Doxazosin Mesylate,"360 minutes, listed as Form -M",39.5%
same,% Release of Doxazosin Mesylate,"480 minutes, listed as Form -M",50.2%
same,% Release of Doxazosin Mesylate,"600 minutes, listed as Form -M",58.8%
same,% Release of Doxazosin Mesylate,"720 minutes, listed as Form -M",67.0%
same,% Release of Doxazosin Mesylate,"720 minutes, listed as form M",67.0%
same,% Release of Doxazosin Mesylate,"900 minutes, listed as Form -M",74.9%
same,% Release of Doxazosin Mesylate,"1080 minutes, listed as Form -M",78.0%
same,% Release of Doxazosin Mesylate,"1260 minutes, listed as Form -M",79.5%

# — patent US8383627B2, “Crystalline polymorph of doxazosin mesylate (form IV) and process for preparation thereof” (CIPLA Limited, priority 2007, dated 2013)
